Results: patent US6642222B2, “Pyrano, piperidino, and thiopyrano compounds and methods of use” (Abbott Laboratories, priority 1998, dated 2003)

Tests used:
Landrace Pig Bladder = experiment: Functional potassium channel opening activity in isolated bladder strips (field-stimulated twitch); details: for Index: ED50 for P1075 divided by ED50 for the test agonist, averaged over tissues; for Efficacy (% P1075) / Emax: maximal efficacy relative to P1075, field stimulated bladder strips; for pD2 / EC50: negative logarithm of ED50; for Emax / EC50: Sus scrofa; for EC50: read-out: pD2 (converted)
Description: Compounds were evaluated for functional potassium channel opening activity using tissue strips obtained from Landrace pig bladders. Landrace pig bladders were obtained from female Landrace pigs of 9-30 kg. Landrace pigs were euthanized with an intraperitoneal injection of pentobarbital solution, Somlethal®, J. A. Webster Inc. Sterling Mass. The entire bladder was removed and immediately placed into Krebs Ringer bicarbonate solution (composition, mM: NaCl, 120; […] Dextrose, 4.7; […] Propranolol (0.004 mM) was included in all of the assays to block β-adrenoceptors. The trigonal and dome portions were […], Strips 3-5 […] (mm) wide and 20 mm long were prepared from the remaining tissue cut in a circular fashion. The mucosal layer was removed. One end was fixed to a stationary glass rod and the other to a Grass FT03 transducer at a basal preload of 1.0 g. Two parallel platinum electrodes were included in the stationary glass trod to provide field stimulation of 0.05 Hz, 0.5 milli-seconds at 20 volts. […] Tissues were allowed to equilibrate for at least 60 minutes and primed with 80 mM KCl. A control concentration response curve (cumulative) was generated for each tissue using the potassium channel opener […] as the control agonist. […] After a 60 minute rinsing period, a concentration response curve (cumulative) was generated for the test agonist in the same fashion as that used for the control agonist […]. The maximal efficacy of each compounds (expressed as % relative to […]) is reported. The amount of agent necessary to cause 50% of the agent's maximal response (ED50) was calculated using “ALLFIT” (DeLean et al., Am. J. […] Agonist potencies were also expressed as an index relative to […]. The index was calculated by dividing the ED50 for […] by the ED50 for the test agonist in a given tissue. Each tissue was used for only one test agonist, and the indices obtained from each tissue were averaged to provide an average index of potency.

[1] = system: Guinea-Pig Bladder (GPB) Cells; experiment: Membrane Hyperpolarization (MHP) assay, DiBAC(4)3 / FLIPR; details: for Maximal Response (% P1075): maximal steady-state hyperpolarization, normalized to 10 μM P1075 (100%); for EC50: membrane hyperpolarization, GPB cells; for Emax: read-out: Maximal Response (% P1075), maximal steady-state hyperpolarization, normalized to 10 μM P1075 (100%)

| SMILES | EC50 ([1]; Hydrochloride) [nM] | EC50 [1] [nM] | EC50 (Landrace Pig Bladder) [nM] | EC50 ([1]; Cavia porcellus) [nM] | Index (Landrace Pig Bladder; Hydrochloride) | Efficacy (% P1075) (Landrace Pig Bladder; Hydrochloride) | pD2 (Landrace Pig Bladder; Hydrochloride) | Maximal Response (% P1075) ([1]; Hydrochloride) | Index (Landrace Pig Bladder) | Efficacy (% P1075) (Landrace Pig Bladder) | pD2 (Landrace Pig Bladder) | Maximal Response (% P1075) [1] [% P1075] | Emax (Landrace Pig Bladder) [%] | Emax ([1]; Cavia porcellus) [%] |
| --- | --- | --- | --- | --- | --- | --- | --- | --- | --- | --- | --- | --- | --- | --- |
| O=C1COCC2=C1C(c1ccc(F)c(Br)c1)C1=C(CCS1(=O)=O)N2 (single isomer, unassigned; (+)) [Example 12, (+)-9-(3-bromo-4-fluorophenyl)-2,3,5,9-tetrahydro-4H-pyrano[3,4-b]thieno[2,3-e]pyridin-8(7H)-one 1,1-dioxide] |  | 14 |  |  |  |  |  |  | 3.3 | 85 | 7.2 | 101 |  |  |
| O=C1COCC2=C1C(c1ccc(F)c(-c3ccco3)c1)C1=C(COCC1=O)N2 [Example 57, 5-[4-fluoro-3-(2-furyl)phenyl]-5,10-dihydro-1H,3H-dipyrano[3,4-b:4,3-e]pyridine-4,6(7H,9H)-dione] |  | 4000 |  |  |  |  |  |  | 0.090 | 45 | 5.6 | 69 |  |  |
| N#Cc1cccc(C2C3=C(COCC3=O)NC3=C2S(=O)(=O)CC3)c1 (single isomer, unassigned; (+)) [Example 15, (+)9-(3-cyanophenyl)-2,3,5,9-tetrahydro-4H-pyrano [3,4-b]thieno[2,3-e]pyridin-8(7H)-one 1,1-dioxide] |  | 640 | 2000 |  |  |  |  |  | 0.027 |  |  | 90 | 100 |  |
| O=C1COCC2=C1C(c1ccc(F)c(Br)c1)C1=C(CCS1(=O)=O)N2 (stereo not drawn) [Example 11, 9-(3-bromo-4-fluorophenyl)-2,3,5,9-tetrahydro-4H-pyrano[3,4-b]thieno[2,3-e]pyridin-8(7H)-one 1,1-dioxide] |  | 23 |  |  |  |  |  |  | 1.2 |  | 6.8 |  | 91 | 104 |
| Cc1ccc(C2C3=C(COCC3=O)NC3=C2C(=O)COC3)cc1I [Example 54, 5-(3-iodo-4-methylphenyl)-5,10-dihydro-1H,3H-dipyrano[3,4-b:4,3-e]pyridine-4,6(7H,9H)-dione] |  | 9.5 |  |  |  |  |  |  | 0.48 | 100 | 6.9 | 101 |  |  |
| C=C(C)c1cc(C2C3=C(COCC3=O)NC3=C2C(=O)COC3)ccc1F [Example 64, 5-(4-fluoro-3-isopropenylphenyl)-5,10-dihydro-1H,3H-dipyrano[3,4-b:4,3-e]pyridine-4,6(7H,9H)-dione] |  | 250 |  |  |  |  |  |  | 0.031 | 95 | 5.5 | 84 |  |  |
| O=C1COCC2=C1C(c1cc(Br)ccc1O)C1=C(COCC1=O)N2 [Example 31, 5-(5-bromo-2-hydroxyphenyl)-5,10-dihydro-1H,3H-dipyrano[3,4-b:4,3-e]pyridine-4,6(7H,9H)-dione] |  | 1300 |  |  |  |  |  |  | 0.065 | 85 | 5.1 | 83 |  |  |
| O=C1COCC2=C1C(c1ccc([N+](=O)[O-])s1)C1=C(COCC1=O)N2 [Example 35, 5-(5-nitro-2-thienyl)-5,10-dihydro-1H,3H-dipyrano[3,4-b:4,3-e]pyridine-4,6(7H,9H)-dione] |  | 25 |  |  |  |  |  |  | 1.8 | 100 | 7.4 | 98 |  |  |
| O=C1COCC2=C1C(c1cc(Br)c(F)cc1O)C1=C(COCC1=O)N2 [Example 58, 5-(5-bromo-4-fluoro-2-hydroxyphenyl)-5,10-dihydro-1H,3H-dipyrano[3,4-b:4,3-e]pyridine-4,6(7H,9H)-dione] |  | 46 |  |  |  |  |  |  | 0.19 | 84 | 6.2 | 94 |  |  |
| O=C1COCC2=C1C(c1ccc(F)c(Br)c1)C1=C(COCC1=O)N2 [Example 1, 5-(3-bromo-4-fluorophenyl)-5,10-dihydro-1H,3H-dipyrano[3,4-b:4,3-e]pyridine-4,6(7H,9H)-dione] |  | 27 |  |  |  |  |  |  | 0.36 | 97 | 6.9 | 96 |  |  |
| N#Cc1cccc(C2C3=C(COCC3=O)NC3=C2C(=O)COC3)c1 [Example 29, 5-(3-cyanophenyl)-5,10-dihydro-1H,3H-dipyrano[3,4-b:4,3-e]pyridine-4,6(7H,9H)-dione] |  | 1100 |  |  |  |  |  |  | 0.075 | 89 | 5.8 | 87 |  |  |
| Cc1ccc(C2C3=C(COCC3=O)NC3=C2C(=O)COC3)cc1Br [Example 53, 5-(3-bromo-4-methylphenyl)-5,10-dihydro-1H,3H-dipyrano[3,4-b:4,3-e]pyridine-4,6(7H,9H)-dione] |  | 19 |  |  |  |  |  |  | 0.44 | 100 | 7.0 | 98 |  |  |
| O=C1COCC2=C1[C@@H](c1ccc(F)c(I)c1)C1=C(COC1=O)N2 (single isomer, unassigned) [Example 79] |  |  | 158 | 14 |  |  |  |  | 0.40 |  |  |  | 95 | 90 |

Now from value to molecule, other results behind:

| EC50 ([1]; Hydrochloride) [nM] | EC50 [1] [nM] | EC50 (Landrace Pig Bladder) [nM] | EC50 ([1]; Cavia porcellus) [nM] | SMILES | Index (Landrace Pig Bladder; Hydrochloride) | Efficacy (% P1075) (Landrace Pig Bladder; Hydrochloride) | pD2 (Landrace Pig Bladder; Hydrochloride) | Maximal Response (% P1075) ([1]; Hydrochloride) | Index (Landrace Pig Bladder) | Efficacy (% P1075) (Landrace Pig Bladder) | pD2 (Landrace Pig Bladder) | Maximal Response (% P1075) [1] [% P1075] | Emax (Landrace Pig Bladder) [%] | Emax ([1]; Cavia porcellus) [%] |
| --- | --- | --- | --- | --- | --- | --- | --- | --- | --- | --- | --- | --- | --- | --- |
| 320 |  |  |  | Cl.O=C1CNCC2=C1C(c1ccc(F)c(Br)c1)C1=C(COC1=O)N2 (stereo not drawn) [Example 40, 9-(3-bromo-4-fluorophenyl)-5,6,7,9-tetrahydrofuro [3,4-b][1,7]naphthyridine-1,8(3H,4H)-dione hydrochloride] | 0.13 | 91 | 6.0 | 111 |  |  |  |  |  |  |
|  |  | 2510 | 35 | O=C1CCCC2=C1C(c1ccc(F)c(Br)c1)C1=C(COCC1=O)N2 (stereo not drawn) [Example 20, 5-(3-bromo-4-fluorophenyl)-5,8,9,10-tetrahydro-1H-pyrano[3,4-b]quinoline-4,6(3H, 7H)-dione] |  |  |  |  | 0.43 |  |  |  | 93 | 93 |
|  |  | 5010 | 390 | Cl.O=C1CCC2=C1C(c1ccc(F)c(Cl)c1)C1=C(CNCC1=O)N2 (stereo not drawn) [Example 38, 5-(3-chloro-4-fluorophenyl)-2,3,5,7,8,9-hexahydro-1H-cyclopenta[b][1,7]naphthyridine-4,6-dione Hydrochloride] |  |  |  |  | 0.024 |  |  |  | 80 | 82 |
|  |  | 631 | 26 | O=C1COCC2=C1[C@@H](c1ccc(F)c(Br)c1)C1=C(COC1=O)N2 (single isomer, unassigned) [Example 42] |  |  |  |  | 0.17 |  |  |  | 95 | 102 |
|  | 1400 |  |  | Cl.O=C1CNCC2=C1C(c1ccc(F)c(Br)c1)C1=C(CCS1(=O)=O)N2 (stereo not drawn) [Example 10, 9-(3-Bromo-4-fluorophenyl)-2,3,5,6,7,9-hexahydrothieno [3,2-b][1,7]naphthyridin-8(4H)-one, 1,1-dioxide hydrochloride] |  |  |  |  | 0.0028 | 96 | 4.3 | 87 |  |  |
|  |  | 2510 | 46 | O=C1COCC2=C1C(c1ccc(F)c(Br)c1)C1=C(CSCC1=O)N2 (stereo not drawn) [Example 22, 5-(3-bromo-4-fluorophenyl)-5,10-dihydro-1H,3H-pyrano[3,4-b]thiopyrano[4,3-e]pyridine-4,6(7H,9H)-dione] |  |  |  |  | 0.027 |  |  |  | 100 | 85 |
| 5000 |  |  |  | Cl.O=C1CCCC2=C1C(c1ccc(F)c(Br)c1)C1=C(CNCC1=O)N2 (single isomer, unassigned; (+)) [Example 8, (+)-5-(3-bromo-4-fluorophenyl)-2,3,5,8,9,10-hexahydrobenzo[b][1,7]naphthyridine-4,6(1H, 7H)-dione Hydrochloride] | 0.023 | 90 | 5.2 | 33 |  |  |  |  |  |  |
| 650 |  |  |  | Cl.O=C1CCCC2=C1C(c1ccc(F)c(Br)c1)C1=C(CNCC1=O)N2 (stereo not drawn) [Example 2, 5-(3-bromo-4-fluorophenyl)-2,3,5,8,9,10-hexahydrobenzo [b][1,7]naphthyridine-4,6(1H, 7H)-dione Hydrochloride] | 0.041 | 99 | 5.8 | 88 |  |  |  |  |  |  |
